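Tested at 5 concentrations; 48 h exposure; 96-well plates; endpoints linearly interpolated, else capped at highest concentration. GI50 is the concentration that inhibits growth by half.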 The source made the active and inactive calls. No stated cut-off is given here; in the data, active = GI50 up to about 1.1 µM and inactive = higher.
Key:
Experiment in all cases: growth of human tumour cells (NCI), 48 h
EKVX = test system: EKVX
Malme-3M = test system: Malme-3M
MDA-N = test system: MDA-N
SK-MEL-5 = test system: SK-MEL-5
SK-MEL-28 = test system: SK-MEL-28
SF-539 = test system: SF-539
SK-MEL-2 = test system: SK-MEL-2
COLO 205 = test system: COLO 205
786-0 = test system: 786-0
HCT-116 = test system: HCT-116
A549 = test system: A549
U-251 = test system: U-251
SK-OV-3 = test system: SK-OV-3
LOX IMVI = test system: LOX IMVI
BT-549 = test system: BT-549
SNB-19 = test system: SNB-19
NCI/ADR-RES = test system: NCI/ADR-RES
SF-268 = test system: SF-268
HOP-62 = test system: HOP-62
SW-620 = test system: SW-620
NCI-H460 = test system: NCI-H460
T47D = test system: T47D
UACC-257 = test system: UACC-257
NCI-H226 = test system: NCI-H226
HT-29 = test system: HT-29
HCT-15 = test system: HCT-15
Hs-578T = test system: Hs-578T
IGROV-1 = test system: IGROV-1
A498 = test system: A498
TK-10 = test system: TK-10
NCI-H23 = test system: NCI-H23
SN12C = test system: SN12C
HOP-92 = test system: HOP-92
MDA-MB-231 = test system: MDA-MB-231
CAKI-1 = test system: CAKI-1
RXF 393 = test system: RXF 393
MCF7 = test system: MCF7
SNB-75 = test system: SNB-75
ACHN = test system: ACHN
K562 = test system: K562
OVCAR-8 = test system: OVCAR-8
OVCAR-3 = test system: OVCAR-3
NCI-H522 = test system: NCI-H522
RPMI-8226 = test system: RPMI-8226
UACC-62 = test system: UACC-62
SF-295 = test system: SF-295
OVCAR-5 = test system: OVCAR-5
PC-3 = test system: PC-3
KM12 = test system: KM12
UO-31 = test system: UO-31
MDA-MB-435 = test system: MDA-MB-435
HL-60 = test system: HL-60
OVCAR-4 = test system: OVCAR-4
CCRF-CEM = test system: CCRF-CEM
HCC 2998 = test system: HCC 2998
M14 = test system: M14
MOLT-4 = test system: MOLT-4
DU-145 = test system: DU-145
SR = test system: SR

SMILES: CC(C)=CCC/C(C)=C/CC/C(C)=C/CC/C(C)=C/C=C/C=C(\C)CC/C=C(\C)CC/C=C(\C)CCC=C(C)C
- GI50 (EKVX): 32.3 µM (inactive)
- GI50 (Malme-3M): > 77.1 µM (inactive)
- GI50 (MDA-N): > 68.5 µM (inactive)
- GI50 (SK-MEL-5): 44.1 µM (inactive)
- GI50 (SK-MEL-28): > 100 µM (inactive)
- GI50 (SF-539): > 100 µM (inactive)
- GI50 (SK-MEL-2): > 100 µM (inactive)
- GI50 (COLO 205): > 100 µM (inactive)
- GI50 (786-0): 22.2 µM (inactive)
- GI50 (HCT-116): > 92.5 µM (inactive)
- GI50 (A549): 60 µM (inactive)
- GI50 (U-251): 63.7 µM (inactive)
- GI50 (SK-OV-3): > 100 µM (inactive)
- GI50 (LOX IMVI): 21.2 µM (inactive)
- GI50 (BT-549): > 100 µM (inactive)
- GI50 (SNB-19): > 100 µM (inactive)
- GI50 (NCI/ADR-RES): 50.7 µM (inactive)
- GI50 (SF-268): > 58.7 µM (inactive)
- GI50 (HOP-62): 72.6 µM (inactive)
- GI50 (SW-620): > 100 µM (inactive)
- GI50 (NCI-H460): 34.8 µM (inactive)
- GI50 (T47D): 72.1 µM (inactive)
- GI50 (UACC-257): > 100 µM (inactive)
- GI50 (NCI-H226): > 100 µM (inactive)
- GI50 (HT-29): > 100 µM (inactive)
- GI50 (HCT-15): > 100 µM
- GI50 (Hs-578T): > 82.6 µM (inactive)
- GI50 (IGROV-1): 17.5 µM (inactive)
- GI50 (A498): > 100 µM (inactive)
- GI50 (TK-10): > 58.7 µM (inactive)
- GI50 (NCI-H23): 68.2 µM (inactive)
- GI50 (SN12C): > 39.4 µM (inactive)
- GI50 (HOP-92): 45.5 µM (inactive)
- GI50 (MDA-MB-231): > 70.5 µM (inactive)
- GI50 (CAKI-1): 16.8 µM (inactive)
- GI50 (RXF 393): > 100 µM (inactive)
- GI50 (MCF7): 44.2 µM (inactive)
- GI50 (SNB-75): > 71.6 µM (inactive)
- GI50 (ACHN): 31.5 µM (inactive)
- GI50 (K562): 17.2 µM (inactive)
- GI50 (OVCAR-8): > 63 µM (inactive)
- GI50 (OVCAR-3): > 100 µM (inactive)
- GI50 (NCI-H522): 14.8 µM (inactive)
- GI50 (RPMI-8226): 38.4 µM (inactive)
- GI50 (UACC-62): > 100 µM (inactive)
- GI50 (SF-295): > 100 µM (inactive)
- GI50 (OVCAR-5): > 100 µM (inactive)
- GI50 (PC-3): > 81.5 µM (inactive)
- GI50 (KM12): 31.8 µM (inactive)
- GI50 (UO-31): 25.3 µM (inactive)
- GI50 (MDA-MB-435): > 76.6 µM (inactive)
- GI50 (HL-60): 3.02 µM (inactive)
- GI50 (OVCAR-4): > 57.4 µM (inactive)
- GI50 (CCRF-CEM): 24.6 µM (inactive)
- GI50 (HCC 2998): > 100 µM (inactive)
- GI50 (M14): > 100 µM (inactive)
- GI50 (MOLT-4): 19.7 µM (inactive)
- GI50 (DU-145): > 56.9 µM (inactive)

SMILES: COc1cc(CN(C)N2C(=O)c3cccc4cc([N+](=O)[O-])cc(c34)C2=O)cc(OC)c1OC
- GI50 (Malme-3M): > 100 µM (inactive)
- GI50 (MDA-N): > 100 µM (inactive)
- GI50 (SK-MEL-5): > 100 µM (inactive)
- GI50 (SK-MEL-28): > 100 µM (inactive)
- GI50 (SK-MEL-2): > 100 µM (inactive)
- GI50 (COLO 205): > 100 µM (inactive)
- GI50 (U-251): > 100 µM (inactive)
- GI50 (SK-OV-3): 44.1 µM (inactive)
- GI50 (BT-549): > 100 µM (inactive)
- GI50 (SNB-19): > 100 µM (inactive)
- GI50 (NCI/ADR-RES): > 100 µM (inactive)
- GI50 (HOP-62): 16.7 µM (inactive)
- GI50 (SR): > 100 µM (inactive)
- GI50 (NCI-H460): > 100 µM (inactive)
- GI50 (T47D): > 100 µM (inactive)
- GI50 (NCI-H226): 58.1 µM (inactive)
- GI50 (HT-29): > 100 µM (inactive)
- GI50 (HCT-15): > 100 µM
- GI50 (Hs-578T): 44.1 µM (inactive)
- GI50 (IGROV-1): > 100 µM (inactive)
- GI50 (A498): > 100 µM (inactive)
- GI50 (NCI-H23): > 100 µM (inactive)
- GI50 (SN12C): > 100 µM (inactive)
- GI50 (HOP-92): > 100 µM (inactive)
- GI50 (MDA-MB-231): 81.3 µM (inactive)
- GI50 (CAKI-1): > 100 µM (inactive)
- GI50 (RXF 393): 14.1 µM (inactive)
- GI50 (MCF7): > 100 µM (inactive)
- GI50 (SNB-75): 25.2 µM (inactive)
- GI50 (K562): > 100 µM (inactive)
- GI50 (OVCAR-8): > 100 µM (inactive)
- GI50 (OVCAR-3): > 100 µM (inactive)
- GI50 (NCI-H522): 70.3 µM (inactive)
- GI50 (RPMI-8226): > 100 µM (inactive)
- GI50 (UACC-62): > 100 µM (inactive)
- GI50 (SF-295): 54.6 µM (inactive)
- GI50 (OVCAR-5): > 100 µM (inactive)
- GI50 (PC-3): > 100 µM (inactive)
- GI50 (KM12): > 100 µM (inactive)
- GI50 (UO-31): > 100 µM (inactive)
- GI50 (MDA-MB-435): > 100 µM (inactive)
- GI50 (HL-60): > 100 µM (inactive)
- GI50 (OVCAR-4): > 100 µM (inactive)
- GI50 (CCRF-CEM): > 100 µM (inactive)
- GI50 (M14): > 100 µM (inactive)
- GI50 (MOLT-4): 27.6 µM (inactive)
- GI50 (DU-145): > 100 µM (inactive)

From ChEMBL document CHEMBL1201862, “PubChem BioAssay data set” (2004)
